ChEMBL document CHEMBL1201862, “PubChem BioAssay data set” (2004)
Active and inactive are the calls of the source.

Tests used:
[1] = target: T1, Short transient receptor potential channel 4 (Mus musculus, UniProt Q9QUQ5); assay: TRPC4 positive allosteric modulators, dose response, cell-based, HEK293 TRPC4/mu-opioid, Fluo-4 calcium, EC20 DAMGO (AID 434941); assay type: functional
T1 sequence (Q9QUQ5 whole entry): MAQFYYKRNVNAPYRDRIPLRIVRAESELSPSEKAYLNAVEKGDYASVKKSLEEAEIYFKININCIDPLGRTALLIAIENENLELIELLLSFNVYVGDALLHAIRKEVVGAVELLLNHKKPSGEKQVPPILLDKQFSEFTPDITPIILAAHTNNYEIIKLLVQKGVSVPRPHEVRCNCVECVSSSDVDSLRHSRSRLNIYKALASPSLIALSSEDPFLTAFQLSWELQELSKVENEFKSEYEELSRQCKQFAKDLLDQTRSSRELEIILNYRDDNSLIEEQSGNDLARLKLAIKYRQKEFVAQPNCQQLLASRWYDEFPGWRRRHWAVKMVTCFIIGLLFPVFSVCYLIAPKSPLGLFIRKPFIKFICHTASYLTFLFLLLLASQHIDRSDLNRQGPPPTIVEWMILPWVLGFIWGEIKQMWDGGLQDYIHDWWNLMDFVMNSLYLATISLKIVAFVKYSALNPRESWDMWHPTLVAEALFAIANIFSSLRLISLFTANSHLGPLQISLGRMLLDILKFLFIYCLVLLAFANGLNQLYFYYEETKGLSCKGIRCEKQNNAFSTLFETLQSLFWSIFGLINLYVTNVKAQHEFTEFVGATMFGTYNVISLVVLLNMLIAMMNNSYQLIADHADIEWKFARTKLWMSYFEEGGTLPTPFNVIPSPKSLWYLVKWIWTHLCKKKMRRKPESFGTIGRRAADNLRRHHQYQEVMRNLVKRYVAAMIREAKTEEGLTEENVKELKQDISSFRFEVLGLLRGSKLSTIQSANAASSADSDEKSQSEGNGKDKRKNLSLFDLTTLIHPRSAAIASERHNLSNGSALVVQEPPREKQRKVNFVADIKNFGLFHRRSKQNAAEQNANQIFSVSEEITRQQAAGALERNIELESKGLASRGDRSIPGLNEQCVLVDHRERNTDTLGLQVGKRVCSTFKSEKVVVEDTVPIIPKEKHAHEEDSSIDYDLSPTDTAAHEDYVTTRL

Vero [2] = assay: West Nile virus CPE inhibition, SAR follow-up, cell-based, synthesized analogs (AID 2238); assay type: functional; conditions: Chlorocebus sabaeus
Vero [3] = assay: Vero E6 cell cytotoxicity, SAR follow-up, cytotoxicity control for West Nile virus antiviral project, synthesized analogs (AID 2244); assay type: functional; conditions: Chlorocebus sabaeus
Bcl-2-like protein 10 = target: T2, Bcl-2-like protein 10 (Homo sapiens, UniProt Q9HD36); assay: displacers of TR3 peptide from Bcl-B, primary screen, selectivity assay for Bfl-1 inhibitor project, biochemical, fluorescence polarization, FITC-TR3 peptide (AID 748);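 note: fluorescence polarization from a fluorescein-labelled TR3 peptide binding purified Bcl-B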
T2 sequence (Q9HD36 whole entry): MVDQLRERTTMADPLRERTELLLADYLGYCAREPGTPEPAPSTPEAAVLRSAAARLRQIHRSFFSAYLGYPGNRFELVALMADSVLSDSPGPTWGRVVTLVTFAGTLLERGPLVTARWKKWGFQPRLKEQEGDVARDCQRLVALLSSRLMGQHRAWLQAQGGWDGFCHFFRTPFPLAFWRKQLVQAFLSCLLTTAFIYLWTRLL

[4] = Vero cell cytotoxicity, dose response, cytotoxicity control for Vif-APOBEC3G degradation inhibitor project, Vero cells (AID 1117358); assay type: functional; conditions: Human immunodeficiency virus 1, Vero
[5] = target: Tyrosine-protein phosphatase non-receptor type 7 (Homo sapiens, UniProt P35236); assay: redox-dependent HePTP inhibition, mechanism study, biochemical, fluorescence (AID 2068); assay type: functional
[6] = THP-1 cell cytotoxicity, dose response, cytotoxicity control for Vif-APOBEC3G degradation inhibitor project, THP-1 cells (AID 1117359); assay type: functional; conditions: Human immunodeficiency virus 1, THP-1
SUMO-activating enzyme [7] = target: T3, SUMO-activating enzyme (Homo sapiens, UniProt Q9UBT2); assay: inhibitors of in vitro SUMOylation cascade, primary screen, biochemical, HTRF, uHTS (AID 2006); assay type: protein-complex assay
SUMO-activating enzyme [8] = target: T3, SUMO-activating enzyme; assay: SUMOylation inhibitor hit validation, confirmation, SUMOylation inhibitor project, biochemical, AlphaScreen (AID 2018); assay type: functional
[9] = inhibitors of firefly luciferase expression or activity, dose response, H4 neuroglioma cells, luminescence (AID 1990); assay type: functional, cell-based
Protein RecA = target: T4, Protein RecA (Mycobacterium tuberculosis, UniProt P9WHJ3); assay: Fluorescence Cell-Free Homogeneous Dose Retest to Identify Inhibitors of RecA-Intein Splicing Activity. [Related pubchem assays (depositor defined):AID2097, AID2223, AID489010, AID492950]; assay type: functional
T4 sequence (P9WHJ3 whole entry): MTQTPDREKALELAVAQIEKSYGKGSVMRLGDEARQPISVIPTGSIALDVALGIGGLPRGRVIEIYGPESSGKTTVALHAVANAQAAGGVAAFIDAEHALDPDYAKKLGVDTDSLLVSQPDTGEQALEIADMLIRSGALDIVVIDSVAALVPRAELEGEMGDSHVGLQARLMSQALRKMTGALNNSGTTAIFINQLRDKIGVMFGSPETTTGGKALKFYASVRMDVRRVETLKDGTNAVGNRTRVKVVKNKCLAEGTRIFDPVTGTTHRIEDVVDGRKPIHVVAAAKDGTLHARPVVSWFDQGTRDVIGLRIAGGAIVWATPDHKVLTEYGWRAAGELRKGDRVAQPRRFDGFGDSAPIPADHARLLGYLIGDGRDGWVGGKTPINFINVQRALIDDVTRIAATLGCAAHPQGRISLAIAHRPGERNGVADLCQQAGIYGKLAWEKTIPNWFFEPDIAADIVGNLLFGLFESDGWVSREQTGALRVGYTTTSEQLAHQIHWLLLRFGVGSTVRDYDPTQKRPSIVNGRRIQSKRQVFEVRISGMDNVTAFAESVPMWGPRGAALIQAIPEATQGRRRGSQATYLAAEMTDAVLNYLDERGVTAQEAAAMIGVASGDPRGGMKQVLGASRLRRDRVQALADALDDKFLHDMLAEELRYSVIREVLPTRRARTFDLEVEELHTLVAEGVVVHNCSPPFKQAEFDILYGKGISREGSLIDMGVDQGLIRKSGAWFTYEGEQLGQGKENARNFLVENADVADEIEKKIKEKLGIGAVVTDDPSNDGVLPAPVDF

[10] = Luminescence Cell-Based Dose Response HTS to Identify Inhibitors of 5'UTR Stem-Loop Driven Prion Protein mRNA Translation in H4 Neuroglioblastoma Cells. [Related pubchem assays: 1827 (Project Summary), 1813 (Primary HTS)]; assay type: functional
[11] = target: E3 ubiquitin-protein ligase Mdm2 (Homo sapiens, UniProt Q00987); assay: enhancers of MDM2-luciferase reporter signal, concentration-effect titration, project on inhibitors of MDM2 ubiquitin ligase, cellular assay, luminescent readout, 384-well plate format (AID 1394); assay type: functional;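 note: MDM2 E3 inhibitors raise luminescence so EC50 is for signal enhancement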
Mu-type opioid receptor [12] = target: T5, Mu-type opioid receptor (Homo sapiens, UniProt P35372); assay: HTS Image-Based Screen for Agonists of the MOR Receptor. [Related pubchem assays (depositor defined):AID1777, AID1785, AID1786, AID2133]; assay type: functional
[13] = target: T6, Kappa-type opioid receptor (Homo sapiens, UniProt P41145); assay type: functional
[14] = target: T7, Replicative DNA helicase DnaB (Mycobacterium tuberculosis, UniProt P9WMR3); assay: DnaB intein splicing inhibitors, dose response, biochemical, cell-free fluorescence (AID 449749); assay type: functional
T7 sequence (P9WMR3 whole entry): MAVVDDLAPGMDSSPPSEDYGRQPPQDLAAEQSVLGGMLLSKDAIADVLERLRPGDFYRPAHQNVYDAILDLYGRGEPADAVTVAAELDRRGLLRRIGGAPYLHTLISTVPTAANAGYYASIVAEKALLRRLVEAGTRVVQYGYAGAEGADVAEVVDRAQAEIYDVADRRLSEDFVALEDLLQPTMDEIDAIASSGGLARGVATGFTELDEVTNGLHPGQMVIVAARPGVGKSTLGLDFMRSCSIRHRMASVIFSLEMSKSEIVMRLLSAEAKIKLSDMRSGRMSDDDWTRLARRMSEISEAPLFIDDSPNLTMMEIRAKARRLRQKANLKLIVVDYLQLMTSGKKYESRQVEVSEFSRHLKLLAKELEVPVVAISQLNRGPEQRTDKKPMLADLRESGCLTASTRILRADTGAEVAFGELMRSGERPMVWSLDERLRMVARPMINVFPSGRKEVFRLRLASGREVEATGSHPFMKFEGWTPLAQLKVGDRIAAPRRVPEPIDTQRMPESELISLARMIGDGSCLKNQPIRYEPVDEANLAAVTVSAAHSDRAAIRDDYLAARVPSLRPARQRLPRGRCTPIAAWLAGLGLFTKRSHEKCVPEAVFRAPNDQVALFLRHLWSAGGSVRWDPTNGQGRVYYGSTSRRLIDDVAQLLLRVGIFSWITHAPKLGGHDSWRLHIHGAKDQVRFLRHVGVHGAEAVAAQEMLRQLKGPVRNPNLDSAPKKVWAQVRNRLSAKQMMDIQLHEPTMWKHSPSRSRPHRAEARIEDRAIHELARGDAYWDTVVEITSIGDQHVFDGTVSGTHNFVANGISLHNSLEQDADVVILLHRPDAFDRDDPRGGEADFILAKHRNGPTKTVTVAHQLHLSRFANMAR

[15] = target: T8, Delta-type opioid receptor (Homo sapiens, UniProt P41143); assay: HTS Image-Based Screen for Antagonists of the DOR Receptor. [Related pubchem assays (depositor defined):AID1777, AID1785, AID1786, AID2133]; assay type: functional
Beta-galactosidase = Beta-galactosidase (Escherichia coli, UniProt Q8VNN2); assay type: functional
[16] = target: G-protein coupled receptor 35 (Homo sapiens, UniProt Q9HC97); assay: GPR35 antagonists blocking zaprinast-driven arrestin recruitment, primary screen, imaging, U2OS, beta-arrestin-GFP, zaprinast agonist (AID 2058); assay type: functional;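 note: antagonist potency meaning inhibition of agonist-induced arrestin redistribution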
[17] = target: T8, Delta-type opioid receptor; assay: HTS Image-Based Screen for Agonists of the DOR Receptor. [Related pubchem assays (depositor defined):AID1777, AID1786, AID2133]; assay type: functional
[18] = target: T6, Kappa-type opioid receptor; assay type: functional; remark: listed apart in the source
[19] = inhibitors of SNCA 5'UTR-driven reporter translation, confirmation, H4 neuroglioma cells, luminescence (AID 1988); assay type: functional, cell-based
[20] = target: G-protein coupled receptor 55 (Homo sapiens, UniProt Q9Y2T6); assay: GPR55 antagonists blocking LPI-driven arrestin recruitment, primary screen, imaging, U2OS, beta-arrestin-GFP, LPI agonist (AID 2013); assay type: functional;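 note: antagonist potency measured as reduced agonist-driven arrestin aggregation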
CAAX prenyl protease 2 [21] = target: CAAX prenyl protease 2 (Saccharomyces cerevisiae S288c, UniProt Q03530); assay type: biochemical
CAAX prenyl protease 2 [22] = target: CAAX prenyl protease 2 (Homo sapiens, UniProt Q9Y256); assay: human Rce1 protease inhibitors, dose response, biochemical, yeast membranes, quenched-peptide fluorescence, cherry-pick (AID 588849)
Trypsin = Trypsin (Sus scrofa, UniProt P00761); assay: porcine trypsin inhibitors, dose response, selectivity assay for Rce1 protease inhibitor project, biochemical, quenched peptide fluorescence, cherry-pick (AID 488789)
[23] = target: T6, Kappa-type opioid receptor; assay: SAR analysis of small molecule antagonists of the kappa opioid receptor via a luminescent beta-arrestin assay - Set 3. [Related pubchem assays (depositor defined):AID1777, AID1778, AID1785, AID1786, AID1966, AID2133, AID2136, AID2285, AID2495]; assay type: functional
Mu-type opioid receptor [24] = target: T5, Mu-type opioid receptor; assay: SAR Analysis of Antagonists of the MOR Receptor using an Image-Based Assay - Set 3. [Related pubchem assays (depositor defined):AID1777, AID1785, AID1786, AID1966, AID2133, AID2136, AID2284, AID2285, AID2420]; assay type: functional
[25] = target: T6, Kappa-type opioid receptor; assay: SAR analysis of Antagonists of the Kappa Opioid Receptor (KOR) using an Image-Based Assay - Set 3. [Related pubchem assays (depositor defined):AID1777, AID1785]; assay type: functional
[26] = target: T8, Delta-type opioid receptor; assay: SAR Analysis of Antagonists of the DOR Receptor using an Image-Based Assay - Set 3. [Related pubchem assays (depositor defined):AID1777, AID1785]; assay type: functional

T6 sequence (P41145 whole entry): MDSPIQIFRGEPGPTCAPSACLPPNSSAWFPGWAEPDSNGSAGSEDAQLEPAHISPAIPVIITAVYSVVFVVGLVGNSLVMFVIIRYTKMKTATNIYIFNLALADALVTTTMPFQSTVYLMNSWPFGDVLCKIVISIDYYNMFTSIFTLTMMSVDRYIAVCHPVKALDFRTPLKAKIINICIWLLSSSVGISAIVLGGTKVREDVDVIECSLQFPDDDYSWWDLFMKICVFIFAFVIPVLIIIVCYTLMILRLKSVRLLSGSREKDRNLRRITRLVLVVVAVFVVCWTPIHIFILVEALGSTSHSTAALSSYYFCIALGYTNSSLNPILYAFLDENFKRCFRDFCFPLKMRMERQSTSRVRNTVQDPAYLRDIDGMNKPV
T8 sequence (P41143 whole entry): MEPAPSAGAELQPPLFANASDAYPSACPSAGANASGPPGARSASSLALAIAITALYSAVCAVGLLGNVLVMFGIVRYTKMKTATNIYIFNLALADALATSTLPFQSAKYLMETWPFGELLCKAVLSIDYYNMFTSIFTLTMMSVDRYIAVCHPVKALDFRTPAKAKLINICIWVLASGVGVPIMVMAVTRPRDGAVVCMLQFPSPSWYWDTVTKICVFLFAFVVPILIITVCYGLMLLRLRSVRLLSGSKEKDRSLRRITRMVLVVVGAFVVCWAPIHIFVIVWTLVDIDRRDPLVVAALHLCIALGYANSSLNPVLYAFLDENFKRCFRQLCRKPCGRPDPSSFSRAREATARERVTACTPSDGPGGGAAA
T5 sequence (P35372 whole entry): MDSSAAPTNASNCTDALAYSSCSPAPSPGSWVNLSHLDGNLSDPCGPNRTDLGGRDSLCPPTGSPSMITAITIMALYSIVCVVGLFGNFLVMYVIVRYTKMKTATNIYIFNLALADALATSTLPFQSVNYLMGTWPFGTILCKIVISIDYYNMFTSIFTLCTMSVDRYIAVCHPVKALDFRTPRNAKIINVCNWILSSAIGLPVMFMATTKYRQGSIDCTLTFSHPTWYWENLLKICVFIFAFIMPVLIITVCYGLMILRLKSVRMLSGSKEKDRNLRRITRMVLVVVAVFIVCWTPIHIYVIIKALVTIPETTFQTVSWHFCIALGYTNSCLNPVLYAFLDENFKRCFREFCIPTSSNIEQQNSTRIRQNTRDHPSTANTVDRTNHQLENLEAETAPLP
T3 sequence (Q9UBE0 whole entry): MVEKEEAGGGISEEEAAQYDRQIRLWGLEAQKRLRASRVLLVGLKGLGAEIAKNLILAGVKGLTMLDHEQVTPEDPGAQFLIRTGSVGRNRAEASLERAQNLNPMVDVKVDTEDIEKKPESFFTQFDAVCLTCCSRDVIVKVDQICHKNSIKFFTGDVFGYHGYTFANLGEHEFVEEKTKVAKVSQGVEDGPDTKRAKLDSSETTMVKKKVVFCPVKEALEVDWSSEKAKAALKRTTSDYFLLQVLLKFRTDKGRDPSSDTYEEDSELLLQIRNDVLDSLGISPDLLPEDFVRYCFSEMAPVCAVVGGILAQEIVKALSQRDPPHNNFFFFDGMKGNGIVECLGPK
T3 sequence (Q9UBT2 whole entry): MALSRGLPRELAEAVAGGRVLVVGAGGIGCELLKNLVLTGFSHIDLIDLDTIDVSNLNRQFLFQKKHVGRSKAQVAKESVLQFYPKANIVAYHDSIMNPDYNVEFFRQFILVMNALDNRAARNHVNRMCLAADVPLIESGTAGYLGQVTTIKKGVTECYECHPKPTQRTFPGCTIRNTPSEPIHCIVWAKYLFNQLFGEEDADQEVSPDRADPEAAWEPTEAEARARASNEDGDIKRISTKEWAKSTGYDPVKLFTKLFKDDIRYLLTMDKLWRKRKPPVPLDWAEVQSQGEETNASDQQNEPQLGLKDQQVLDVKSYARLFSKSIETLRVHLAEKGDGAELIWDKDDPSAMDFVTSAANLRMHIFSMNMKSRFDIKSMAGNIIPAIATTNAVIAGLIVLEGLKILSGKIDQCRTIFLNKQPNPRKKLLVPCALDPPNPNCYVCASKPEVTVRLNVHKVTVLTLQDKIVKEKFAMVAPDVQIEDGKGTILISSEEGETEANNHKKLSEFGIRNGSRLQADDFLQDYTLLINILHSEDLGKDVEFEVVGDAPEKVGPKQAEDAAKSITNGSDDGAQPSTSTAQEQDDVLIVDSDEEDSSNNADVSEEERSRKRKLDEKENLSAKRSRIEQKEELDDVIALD
Chain of G-protein coupled receptor 35 (Q9HC97 whole entry): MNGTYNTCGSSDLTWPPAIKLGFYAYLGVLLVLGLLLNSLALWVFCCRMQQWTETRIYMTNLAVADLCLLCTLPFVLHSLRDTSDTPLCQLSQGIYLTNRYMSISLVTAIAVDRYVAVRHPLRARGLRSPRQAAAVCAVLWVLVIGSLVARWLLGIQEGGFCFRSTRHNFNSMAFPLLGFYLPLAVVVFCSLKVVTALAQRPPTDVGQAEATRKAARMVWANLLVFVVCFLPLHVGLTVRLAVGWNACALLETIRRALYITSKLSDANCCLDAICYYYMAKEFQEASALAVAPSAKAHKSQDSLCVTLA
Chain of CAAX prenyl protease 2 (Homo sapiens, UniProt Q9Y256) (Q9Y256 whole entry): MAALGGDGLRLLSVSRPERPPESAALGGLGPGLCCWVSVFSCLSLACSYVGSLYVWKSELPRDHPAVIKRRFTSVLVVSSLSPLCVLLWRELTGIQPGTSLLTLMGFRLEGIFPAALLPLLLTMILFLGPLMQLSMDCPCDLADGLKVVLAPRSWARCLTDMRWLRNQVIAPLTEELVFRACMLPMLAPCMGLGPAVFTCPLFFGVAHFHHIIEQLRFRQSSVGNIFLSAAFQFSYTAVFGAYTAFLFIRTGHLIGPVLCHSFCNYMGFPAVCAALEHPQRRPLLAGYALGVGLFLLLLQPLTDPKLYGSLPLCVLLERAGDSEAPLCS
Chain of Beta-galactosidase (Q8VNN2 whole entry): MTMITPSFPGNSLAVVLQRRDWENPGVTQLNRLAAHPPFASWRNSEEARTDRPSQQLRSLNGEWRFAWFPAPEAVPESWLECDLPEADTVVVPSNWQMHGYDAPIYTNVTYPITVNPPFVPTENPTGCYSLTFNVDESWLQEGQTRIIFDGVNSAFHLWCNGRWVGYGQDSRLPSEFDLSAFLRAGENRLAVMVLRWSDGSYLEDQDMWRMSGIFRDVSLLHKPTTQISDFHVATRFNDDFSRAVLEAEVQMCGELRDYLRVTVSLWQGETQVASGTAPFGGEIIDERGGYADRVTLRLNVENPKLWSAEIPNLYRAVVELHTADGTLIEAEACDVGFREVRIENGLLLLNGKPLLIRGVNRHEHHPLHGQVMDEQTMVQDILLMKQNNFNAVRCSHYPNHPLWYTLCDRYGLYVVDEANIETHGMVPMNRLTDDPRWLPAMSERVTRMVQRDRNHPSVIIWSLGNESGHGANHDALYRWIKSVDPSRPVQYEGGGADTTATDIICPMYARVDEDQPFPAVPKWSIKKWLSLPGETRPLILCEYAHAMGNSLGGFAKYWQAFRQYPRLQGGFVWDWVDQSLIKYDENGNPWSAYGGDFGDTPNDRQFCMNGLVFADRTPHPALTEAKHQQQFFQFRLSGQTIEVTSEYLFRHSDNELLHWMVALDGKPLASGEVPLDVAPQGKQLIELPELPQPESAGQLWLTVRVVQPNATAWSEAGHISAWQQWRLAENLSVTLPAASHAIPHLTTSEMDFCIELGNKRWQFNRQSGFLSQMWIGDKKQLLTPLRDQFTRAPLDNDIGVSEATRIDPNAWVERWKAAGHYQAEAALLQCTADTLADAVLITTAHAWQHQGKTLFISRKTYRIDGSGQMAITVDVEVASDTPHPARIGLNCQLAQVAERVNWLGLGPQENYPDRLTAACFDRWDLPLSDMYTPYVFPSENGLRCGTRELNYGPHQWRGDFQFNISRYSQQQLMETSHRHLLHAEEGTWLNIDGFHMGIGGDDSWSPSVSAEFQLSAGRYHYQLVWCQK
Chain of Tyrosine-protein phosphatase non-receptor type 7 (P35236 whole entry): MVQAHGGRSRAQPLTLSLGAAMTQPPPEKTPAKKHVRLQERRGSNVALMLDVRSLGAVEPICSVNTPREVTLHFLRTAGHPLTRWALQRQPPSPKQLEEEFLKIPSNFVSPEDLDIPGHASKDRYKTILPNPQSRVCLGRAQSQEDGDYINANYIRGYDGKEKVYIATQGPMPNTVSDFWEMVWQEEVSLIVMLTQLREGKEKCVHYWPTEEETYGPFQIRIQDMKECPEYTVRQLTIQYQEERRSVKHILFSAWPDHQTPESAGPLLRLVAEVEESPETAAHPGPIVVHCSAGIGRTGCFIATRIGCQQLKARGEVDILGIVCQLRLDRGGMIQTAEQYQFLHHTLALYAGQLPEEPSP
Chain of E3 ubiquitin-protein ligase Mdm2 (Q00987 whole entry): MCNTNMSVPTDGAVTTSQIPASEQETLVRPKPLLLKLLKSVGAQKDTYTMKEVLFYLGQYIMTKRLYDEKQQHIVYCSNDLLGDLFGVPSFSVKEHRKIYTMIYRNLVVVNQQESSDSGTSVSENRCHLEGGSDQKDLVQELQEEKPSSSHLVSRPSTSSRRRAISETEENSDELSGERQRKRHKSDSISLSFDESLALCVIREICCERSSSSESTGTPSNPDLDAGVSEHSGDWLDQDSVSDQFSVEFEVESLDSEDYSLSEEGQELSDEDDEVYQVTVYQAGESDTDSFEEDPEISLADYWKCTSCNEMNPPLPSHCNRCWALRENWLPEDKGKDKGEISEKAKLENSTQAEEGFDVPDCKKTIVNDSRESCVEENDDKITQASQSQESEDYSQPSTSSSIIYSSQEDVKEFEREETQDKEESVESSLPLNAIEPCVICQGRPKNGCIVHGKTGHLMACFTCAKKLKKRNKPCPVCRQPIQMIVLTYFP
Chain of CAAX prenyl protease 2 (Saccharomyces cerevisiae S288c, UniProt Q03530) (Q03530 whole entry): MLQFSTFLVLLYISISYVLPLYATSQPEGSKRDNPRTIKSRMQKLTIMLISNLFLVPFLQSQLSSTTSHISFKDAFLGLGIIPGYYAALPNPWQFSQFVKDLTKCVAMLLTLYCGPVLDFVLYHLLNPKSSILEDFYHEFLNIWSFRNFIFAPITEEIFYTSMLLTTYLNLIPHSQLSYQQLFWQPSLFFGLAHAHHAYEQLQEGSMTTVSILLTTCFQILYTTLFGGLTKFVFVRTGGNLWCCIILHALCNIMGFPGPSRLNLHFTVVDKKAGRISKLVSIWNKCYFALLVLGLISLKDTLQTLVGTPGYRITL

Cc1cccc(Cc2c(C)nc3c(C(=O)NCc4ccco4)cnn3c2C)c1
active: EC50 [1] 3.76 µM

COc1ccc(-c2csc(N(CCCN(C)C)C(=O)c3ccccc3C)n2)cc1
active: IC50 (Vero [2]) 76.6 µM | CC50 (Vero [3]) 63.2 µM

O=C(Nc1ccccc1)c1ccc2nc(-c3ccco3)c(-c3ccco3)nc2c1
active: CC50 [4] > 40 µM | IC50 [5] 2.51 µM | CC50 [6] > 40 µM | IC50 (SUMO-activating enzyme [7]) 20.7 µM | IC50 (SUMO-activating enzyme [8]) 1.54 µM
inactive: IC50 (Bcl-2-like protein 10) > 100 µM

CC(NC(=O)Cn1ncc(Cl)c(Cl)c1=O)C12CC3CC(CC(C3)C1)C2 (stereo not given)
active: EC50 [9] 8.55 µM | EC50 (Protein RecA) 0.047 µM | EC50 [10] 6.41 µM | EC50 [11] 1.55 µM | IC50 [13] 2.14 µM | AC50 [14] 0.441 µM | IC50 [15] 6.48 µM | IC50 [16] 1.07 µM | IC50 [20] 3.92 µM
2.63 µM: IC50 [18]
> 120 µM (not active): EC50 [19]
inactive: EC50 (Mu-type opioid receptor [12]) > 32 µM | EC50 (Beta-galactosidase) > 31.5 µM | EC50 [17] > 32 µM

COc1ccc(-c2cc3ccc(OCc4nn[nH]n4)cc3oc2=O)cc1OC
active: AC50 (CAAX prenyl protease 2 [21]) 20.3 µM | AC50 (CAAX prenyl protease 2 [22]) 1.71 µM | AC50 (Trypsin) 2.34 µM

CCc1ccc(S(=O)(=O)NCc2ccc(C(=O)NCCN(Cc3ccccc3)Cc3ccccc3)cc2)cc1
inactive: IC50 [23] > 20 µM | IC50 (Mu-type opioid receptor [24]) > 32 µM | IC50 [25] > 32 µM | IC50 [26] > 32 µM
